ChEMBL document CHEMBL1123383, “Multisubstrate inhibitors of dopamine beta-hydroxylase. 1. Some 1-phenyl and 1-phenyl-bridged derivatives of imidazole-2-thione” (J Med Chem, 1986)

Assays:
[1] = target: T1, Dopamine beta-hydroxylase (Bos taurus, UniProt P15101); test: Inhibition of Dopamine beta hydroxylase.
T1 sequence (P15101 whole entry): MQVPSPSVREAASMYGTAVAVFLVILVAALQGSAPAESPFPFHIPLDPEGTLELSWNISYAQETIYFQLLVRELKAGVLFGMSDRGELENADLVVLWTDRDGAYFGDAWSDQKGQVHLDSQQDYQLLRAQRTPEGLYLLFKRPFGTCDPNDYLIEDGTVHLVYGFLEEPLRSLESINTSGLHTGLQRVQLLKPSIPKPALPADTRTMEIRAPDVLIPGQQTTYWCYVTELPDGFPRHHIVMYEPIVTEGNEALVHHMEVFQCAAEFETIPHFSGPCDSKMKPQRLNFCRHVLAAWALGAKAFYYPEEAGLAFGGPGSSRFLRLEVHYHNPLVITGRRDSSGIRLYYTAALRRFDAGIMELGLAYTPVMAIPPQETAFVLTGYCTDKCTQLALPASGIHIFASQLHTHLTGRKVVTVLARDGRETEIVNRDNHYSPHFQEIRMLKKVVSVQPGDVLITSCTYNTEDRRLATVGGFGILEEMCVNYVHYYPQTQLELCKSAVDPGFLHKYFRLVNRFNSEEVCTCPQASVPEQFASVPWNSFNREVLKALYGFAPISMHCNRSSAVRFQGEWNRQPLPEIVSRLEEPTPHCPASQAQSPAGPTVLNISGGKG

[2] = target: T2, Dopamine beta-hydroxylase (Bos taurus) (UniProt P15101); test: Inhibition of Dopamine beta hydroxylase at a concentration of 10e-4 M.
T2 sequence (whole entry): T1 sequence (P15101 whole entry)

[3] = target: T2, Dopamine beta-hydroxylase (Bos taurus); test: Compound was evaluated for the inhibition of Dopamine beta hydroxylase at a concentration of 10e-4 M.
[4] = target: T1, Dopamine beta-hydroxylase; test: Compound was evaluated for the inhibition of Dopamine beta hydroxylase at pH 4.5
[5] = target: T1, Dopamine beta-hydroxylase; test: Compound was evaluated for the inhibition of Dopamine beta hydroxylase at pH 6.6

IC50 [1]	Compound	also measured
16 µM	Sc1nccn1CCCc1ccccc1	
	O=S(=O)(CCn1ccnc1S)c1ccccc1	inhibition [2]: 5%
152 µM	COc1ccc(CCCCn2cc[nH]c2=S)cc1	
202 µM	COc1ccc(Cn2cc[nH]c2=S)cc1	
	NCC(c1ccccc1)n1ccnc1S (configuration not stated)	inhibition [2]: 0%
87 µM	S=c1[nH]ccn1CCOc1ccccc1	
2.2 µM	Oc1ccc(CCCn2cc[nH]c2=S)cc1	
109 µM	COc1ccc(CCCCCn2cc[nH]c2=S)cc1	
	Oc1ccc(CCCCCn2ccnc2S)cc1	inhibition [3]: 30%
370 µM	Oc1ccc(-n2ccnc2S)cc1	
	NC(=O)C(c1ccccc1)n1ccnc1S (configuration not stated)	inhibition [2]: 4%
29 µM	CC(Cc1ccccc1)Cn1cc[nH]c1=S (configuration not stated)	
	COc1ccc(-n2ccnc2S)cc1	inhibition [2]: 25%
180 µM	COc1ccc(CCCn2cc[nH]c2=S)cc1	
	Oc1ccc(CCCCn2ccnc2S)cc1	inhibition [2]: 12%
110 µM	Sc1nccn1-c1ccccc1	
68 µM	COc1ccc(CCn2ccnc2S)cc1	
32 µM	S=c1[nH]ccn1Cc1ccccc1	
754 µM	Cn1cc[nH]c1=S [METHIMAZOLE]	Ki [4]: 45 µM; Ki [5]: 716 µM
103 µM	S=c1[nH]ccn1CCSc1ccccc1	
	OC(Cc1ccccc1)Cn1ccnc1S (configuration not stated)	inhibition [2]: 5%
2.6 µM	Oc1ccc(Cn2cc[nH]c2=S)cc1	
325 µM	CC(CCc1ccccc1)n1ccnc1S (configuration not stated)	
23 µM	Oc1ccc(CCn2cc[nH]c2=S)cc1	
18 µM	CC(CCn1cc[nH]c1=S)c1ccccc1 (configuration not stated)	
